Reference: US12239643B2, “Therapeutic agent for inflammatory diseases, autoimmune diseases, fibrotic diseases, and cancer diseases” (MEIJI SEIKA PHARMA CO., LTD., priority 2018, dated 2025)
pIC50: −log10 of the molar value. Where two headings read alike, the source gives them in different places.

Tests used:
[1] = system: PDE4; assay: Evaluation of PDE4 inhibitory activity, scintillation proximity assay; type: biochemical; details: scintillation proximity assay
Summary of the method: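 SPA with [2,8-3H]-cAMP and diluted PDE4 enzyme preparation in 50 mM Tris-HCl pH 7.4, 8.3 mM MgCl2, 1.7 mM EGTA, 3 mg/mL BSA, 120 min at room temperature. Product captured on ZnSO4-containing YSi-SPA beads, scintillation counted; IC50 from inhibition curves vs DMSO control and no-enzyme blank.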

[2] = Hepatic metabolic stability (rat liver microsome method); type: in vitro ADME; details: rat liver microsomes 0.5 mg/mL, test substance 1 μM, NADPH 1 mM, 37° C., 30 minutes
Method: Metabolic stability in rat liver microsomes was evaluated by the following method. First, in 100 mM of potassium phosphate buffer solution (pH 7.4), liver microsomes (concentration at reaction: 0.5 mg/mL) and the test substance (concentration at reaction: 1 μM) were preincubated at 37° C. Five minutes later, 100 mM of potassium phosphate buffer (pH 7.4) solution of NADPH (concentration at reaction: 1 mM) was mixed thereto to start the reaction. After a predetermined time passed, acetonitrile was mixed to the reaction mixture to stop the reaction. Here, the reaction time was 0 and 30 minutes, and drug concentration measurement was performed for each time period using LC-MS. The % remaining value of the test compound was calculated from the value for 0 minutes and the value for 30 minutes, using the calculation formula below: % Remaining=(Value for 30 Minutes/Value for 0 Minutes)×100
The results of measuring the rat liver microsome metabolic Stability (% remaining for 30-minute reaction) for the test compound by the above method were evaluated in accordance with the following evaluated basis; A: a % remaining rate of 75% or more, B: 60% or more and less than 75%, C: 45% or more and less than 60%, and D: less than 45%.

[3] = read-out: PDE4 Inhibitory Activity (Evaluation 1; concentration for the inhibition rate of 50%)
[4] = class symbols of Evaluation 1, read-out: PDE4 Inhibitory Activity (concentration for the inhibition rate of 50%, IC50), Evaluation 1

| Compound | pIC50 [1, 3] | Residual ratio (% remaining for 30-minute reaction) [2] | pIC50 [1, 4] |
| --- | --- | --- | --- |
| FC(F)(F)Oc1ccc(Oc2ccc(-c3nccs3)c3oc(N4CC5CC(C4)N5)nc23)nc1 [Example 343, 2-(3,6-Diazabicyclo[3.1.1]heptan-3-yl)-7-(thiazol-2-yl)-4-((5-(trifluoromethoxy)pyridin-2-yl)oxy)benzo[d]oxazole] | > 7.00 | B (B: 60% or more and less than 75%) |  |
| CC(C)(O)C(F)(F)Oc1c(Cl)cc(-c2nccs2)c2oc(N3CC4CC(C3)N4)nc12 [Example 400, 1-((2-(3,6-Diazabicyclo[3.1.1]heptan-3-yl)-5-chloro-7-(thiazol-2-yl)benzo[d]oxazol-4-yl)oxy)-1,1-difluoro-2-methylpropan-2-ol] | > 7.00 | B (B: 60% or more and less than 75%) |  |
| FC(F)(F)Oc1c(Cl)cc(-c2cscn2)c2oc(N3CC4CCC(C3)N4)nc12 [Example 8, 2-(3,8-Diazabicyclo[3.2.1]octan-3-yl)-5-chloro-7-(thiazol-4-yl)-4-(trifluoromethoxy)benzo[d]oxazole] |  | A (A: a % remaining rate of 75% or more) | > 7.00 |
| O=C(N1CC(O)C1)C(F)(F)Oc1ccc(-c2nccs2)c2oc(N3CC4CC(C3)N4)nc12 [Example 412, 2-((2-(3,6-Diazabicyclo[3.1.1]heptan-3-yl)-7-(thiazol-2-yl)benzo[d]oxazol-4-yl)oxy)-2,2-difluoro-1-(3-hydroxyazetidin-1-yl)ethan-1-one] | > 7.00 | A (A: a % remaining rate of 75% or more) |  |
| c1csc(-c2ccc(OC3CCOCC3)c3nc(N4CC5CC(C4)N5)oc23)n1 [Example 294, 2-(3,6-Diazabicyclo[3.1.1]heptan-3-yl)-4-((tetrahydro-2H-pyran-4-yl)oxy)-7-(thiazol-2-yl)benzo[d]oxazole] | > 7.00 | A (A: a % remaining rate of 75% or more) |  |
| Cc1nsc(-c2ccc(OC(F)(F)C(C)(C)O)c3nc(N4CC5CCC(C4)N5)oc23)n1 [Example 333, 1-((2-(3,8-Diazabicyclo[3.2.1]octan-3-yl)-7-(3-methyl-1,2,4-thiadiazol-5-yl)benzo[d]oxazol-4-yl)oxy)-1,1-difluoro-2-methylpropan-2-ol] | 6.00 to 7.00 | B (B: 60% or more and less than 75%) |  |
| FC(F)(F)c1c(Cl)cc(-n2cccn2)c2oc(N3CC4CC(C3)N4)nc12 [Example 17, 2-(3,6-Diazabicyclo[3.1.1]heptan-3-yl)-5-chloro-7-(1H-pyrazol-1-yl)-4-(trifluoromethyl)benzo[d]oxazole] |  | B (B: 60% or more and less than 75%) | > 7.00 |
| CC(C)(O)C(F)(F)Oc1ccc(-c2ccc(F)cn2)c2oc(N3CC4CCC(C3)N4)nc12 [Example 332, 1-((2-(3,8-Diazabicyclo[3.2.1]octan-3-yl)-7-(5-fluoropyridin-2-yl)benzo[d]oxazol-4-yl)oxy)-1,1-difluoro-2-methylpropan-2-ol] | > 7.00 | A (A: a % remaining rate of 75% or more) |  |
| CC(C)(O)C(F)(F)Oc1ccc(-c2ccc(Cl)cn2)c2oc(N3CC4CC(C3)N4)nc12 [Example 363, 1-((2-(3,6-Diazabicyclo[3.1.1]heptan-3-yl)-7-(5-chloropyridin-2-yl)benzo[d]oxazol-4-yl)oxy)-1,1-difluoro-2-methylpropan-2-ol] | > 7.00 | A (A: a % remaining rate of 75% or more) |  |
| C[C@@H](O)COc1ccc(-c2nccs2)c2oc(N3CC4CC(C3)N4)nc12 [Example 259, (2R)-1-((2-(3,6-diazabicyclo[3.1.1]heptan-3-yl)-7-(thiazol-2-yl)benzo[d]oxazol-4-yl)oxy)propan-2-ol] | > 7.00 | A (A: a % remaining rate of 75% or more) |  |
| CC(C)(O)C(F)(F)Oc1ccc(-c2ccc(F)cn2)c2oc(N3CC4CC(C3)N4)nc12 [Example 329, 1-((2-(3,6-Diazabicyclo[3.1.1]heptan-3-yl)-7-(5-fluoropyridin-2-yl)benzo[d]oxazol-4-yl)oxy)-1,1-difluoro-2-methylpropan-2-ol] | > 7.00 | A (A: a % remaining rate of 75% or more) |  |
| c1csc(-c2ccc(O[C@@H]3CCOC3)c3nc(N4CC5CC(C4)N5)oc23)n1 [Example 324, 2-(3,6-Diazabicyclo[3.1.1]heptan-3-yl)-4-(((R)-tetrahydrofuran-3-yl)oxy)-7-(thiazol-2-yl)benzo[d]oxazole] | > 7.00 | A (A: a % remaining rate of 75% or more) |  |
| C[S+]([O-])c1ccc(-c2nccs2)c2oc(N3CC4CC(C3)N4)nc12 (stereo not drawn) [Example 346, 2-(3,6-Diazabicyclo[3.1.1]heptan-3-yl)-4-(methylsulfinyl)-7-(thiazol-2-yl)benzo[d]oxazole] | > 7.00 | A (A: a % remaining rate of 75% or more) |  |
| OCC(O)C(F)(F)Oc1ccc(-c2nccs2)c2oc(N3CC4CC(C3)N4)nc12 (stereo not drawn) [Example 370, 3-((2-(3,6-Diazabicyclo[3.1.1]heptan-3-yl)-7-(thiazol-2-yl)benzo[d]oxazol-4-yl)oxy)-3,3-difluoropropane-1,2-diol] | > 7.00 | A (A: a % remaining rate of 75% or more) |  |
| O=C(NC1CC1)c1ccc(-c2nccs2)c2oc(N3CC4CC(C3)N4)nc12 [Example 357, 2-(3,6-Diazabicyclo[3.1.1]heptan-3-yl)-N-cyclopropyl-7-(thiazol-2-yl)benzo[d]oxazole-4-carboxamide] | > 7.00 | A (A: a % remaining rate of 75% or more) |  |
| OCC(F)(F)Oc1ccc(-c2ccccn2)c2oc(N3CC4CC(C3)N4)nc12 [Example 315, 2-((2-(3,6-Diazabicyclo[3.1.1]heptan-3-yl)-7-(pyridin-2-yl)benzo[d]oxazol-4-yl)oxy)-2,2-difluoroethan-1-ol] | > 7.00 | A (A: a % remaining rate of 75% or more) |  |
| c1cnc(Oc2ccc(-c3nccs3)c3oc(N4CC5CC(C4)N5)nc23)cn1 [Example 339, 2-(3,6-Diazabicyclo[3.1.1]heptan-3-yl)-4-(pyrazin-2-yloxy)-7-(thiazol-2-yl)benzo[d]oxazole] | > 7.00 | B (B: 60% or more and less than 75%) |  |
| O=S(=O)(c1ccc(-c2nccs2)c2oc(N3CC4CC(C3)N4)nc12)C(F)(F)F [Example 334, 2-(3,6-Diazabicyclo[3.1.1]heptan-3-yl)-7-(thiazol-2-yl)-4-((trifluoromethyl)sulfonyl)benzo[d]oxazole] | > 7.00 | B (B: 60% or more and less than 75%) |  |
| FC(F)(F)Oc1c(Cl)cc(-n2cccn2)c2oc(N3CC4CCC(C3)N4)nc12 [Example 5, 2-(3,8-Diazabicyclo[3.2.1]octan-3-yl)-5-chloro-7-(1H-pyrazol-1-yl)-4-(trifluoromethoxy)benzo[d]oxazole] |  | B (B: 60% or more and less than 75%) | > 7.00 |
| COCCNS(=O)(=O)c1ccc(-c2nccs2)c2oc(N3CC4CC(C3)N4)nc12 [Example 387, 2-(3,6-Diazabicyclo[3.1.1]heptan-3-yl)-N-(2-methoxyethyl)-7-(thiazol-2-yl)benzo[d]oxazole-4-sulfonamide] | > 7.00 | A (A: a % remaining rate of 75% or more) |  |
| OCc1cccnc1Oc1ccc(-c2nccs2)c2oc(N3CC4CC(C3)N4)nc12 [Example 376, (2-((2-(3,6-Diazabicyclo[3.1.1]heptan-3-yl)-7-(thiazol-2-yl)benzo[d]oxazol-4-yl)oxy)pyridin-3-yl)methanol] | > 7.00 | A (A: a % remaining rate of 75% or more) |  |
| FC(F)(F)C(OCc1nnn[nH]1)c1ccc(-c2nccs2)c2oc(N3CC4CCC(C3)N4)nc12 (stereo not drawn) [Example 230, 4-(1-((1H-tetrazol-5-yl)methoxy)-2,2,2-trifluoroethyl)-2-(3,8-diazabicyclo[3.2.1]octan-3-yl)-7-(thiazol-2-yl)benzo[d]oxazole] | > 7.00 | A (A: a % remaining rate of 75% or more) |  |
| FC(F)(F)C(OCc1nnn[nH]1)c1ccc(-c2nccs2)c2oc(N3CC4CC(C3)N4)nc12 (stereo not drawn) [Example 231, 4-(1-((1H-tetrazol-5-yl)methoxy)-2,2,2-trifluoroethyl)-2-(3,6-diazabicyclo[3.1.1]heptan-3-yl)-7-(thiazol-2-yl)benzo[d]oxazole] | > 7.00 | A (A: a % remaining rate of 75% or more) |  |
| FC(F)(F)c1ccc(Oc2ccc(-c3nccs3)c3oc(N4CC5CC(C4)N5)nc23)nc1 [Example 336, 2-(3,6-Diazabicyclo[3.1.1]heptan-3-yl)-7-(thiazol-2-yl)-4-((5-(trifluoromethyl)pyridin-2-yl)oxy)benzo[d]oxazole] | > 7.00 | B (B: 60% or more and less than 75%) |  |
